Where two headings read alike, the source gives them in different places.
Experiments:
[1] = target: AChE (Homo sapiens, UniProt P22303); assay: biochemical
Protocol: (§1) 3.5. Acetylcholinesterase Activity Assay Protocol
(§2) The inhibition of AChE and BChE was determined using a method described earlier.
(§3) Briefly, the stock solutions (1mg/mL) of test analogues were prepared using DMSO. The working solutions (1–100μg/mL) were prepared using serial dilutions (a serial dilution means a series of diluted solutions, e.g., 0.1mg/mL, 0.2mg/mL and so on; the solutions contained 5% DMSO and 95% water). The various concentrations of test compounds (10μL) were pre-incubated with sodium phosphate buffer (0.1 M; pH 8.0; 150μL) and AChE (0.1 U/mL; 20μL) for 15 min at 25°C. The reaction was initiated via the addition of DTNB (1 mM; 10μL) and […] (1 mM; 10 μL). The mixture of reaction was mixed using a cyclomixer and incubated for […]
(§4) wavelength against the blank reading containing 10μL DMSO instead of the test compound (the solution contained 5% DMSO and 95% water). Utilizing the formula given in Equation (1), the percentage of inhibition was computed, and the IC50 was determined under the positive control […]
(§5) % Inhibition = (Absorbance of control—Absorbance of compound)/Absorbance of control × 100 […]
(§6) which was calculated by constructing a non-linear regression graph between the percentages of inhibition vs. concentration, using Graph Pad prism software (version 5.3)(accessed on 5 August […]

[2] = target: BuChE (Homo sapiens, UniProt P06276); assay: biochemical
BuChE, sequence (P06276 29-602): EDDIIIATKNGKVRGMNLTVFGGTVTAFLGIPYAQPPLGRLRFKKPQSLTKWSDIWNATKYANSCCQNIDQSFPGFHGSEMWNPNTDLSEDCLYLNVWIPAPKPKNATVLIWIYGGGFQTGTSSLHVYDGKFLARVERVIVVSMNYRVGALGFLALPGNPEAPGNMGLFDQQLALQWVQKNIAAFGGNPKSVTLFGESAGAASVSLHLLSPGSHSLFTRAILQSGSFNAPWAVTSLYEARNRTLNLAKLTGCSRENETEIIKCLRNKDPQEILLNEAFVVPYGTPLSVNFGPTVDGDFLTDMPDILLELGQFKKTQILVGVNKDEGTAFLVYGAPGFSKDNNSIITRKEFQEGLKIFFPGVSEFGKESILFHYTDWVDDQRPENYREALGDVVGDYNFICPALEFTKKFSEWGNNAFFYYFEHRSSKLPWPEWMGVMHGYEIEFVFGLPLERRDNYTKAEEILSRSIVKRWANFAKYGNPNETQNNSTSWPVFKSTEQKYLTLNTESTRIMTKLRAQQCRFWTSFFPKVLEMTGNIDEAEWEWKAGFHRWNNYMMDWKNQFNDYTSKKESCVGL
Protocol: as §1, §2, §3, §4, §5, §6

[3] = in vitro enzyme inhibition, 25°C, pH 8.0, read-out: AChE IC50 (µM ± SEM)
[4] = in vitro enzyme inhibition, read-out: BuChE IC50 (µM ± SEM)

AChE, sequence (P22303 32-614): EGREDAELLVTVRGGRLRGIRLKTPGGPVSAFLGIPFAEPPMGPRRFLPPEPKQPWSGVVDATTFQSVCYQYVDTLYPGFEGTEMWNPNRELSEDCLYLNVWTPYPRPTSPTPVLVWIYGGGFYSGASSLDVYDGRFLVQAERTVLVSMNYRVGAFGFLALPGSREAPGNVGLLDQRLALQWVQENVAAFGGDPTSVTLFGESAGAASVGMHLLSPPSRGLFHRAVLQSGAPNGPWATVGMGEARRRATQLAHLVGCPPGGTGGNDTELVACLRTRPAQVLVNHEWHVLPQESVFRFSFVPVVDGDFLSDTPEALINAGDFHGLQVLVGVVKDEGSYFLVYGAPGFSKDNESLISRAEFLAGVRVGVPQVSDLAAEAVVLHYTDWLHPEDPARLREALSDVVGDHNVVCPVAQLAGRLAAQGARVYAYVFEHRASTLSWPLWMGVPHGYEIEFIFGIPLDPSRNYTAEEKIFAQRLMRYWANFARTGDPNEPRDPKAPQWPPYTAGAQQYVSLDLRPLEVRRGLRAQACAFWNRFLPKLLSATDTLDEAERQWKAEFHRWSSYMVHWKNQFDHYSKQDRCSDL

Compound	IC50 [1] [µM]	IC50 [2] [µM]	IC50 [1, 3] [µM]	IC50 [2, 4] [µM]	IC50 ([1]; read-out: IC50 for AchE (abstract)) [µM]
O=[N+]([O-])c1cccc([N+](=O)[O-])c1Nc1nnc(Cc2cc3cc(Cl)ccc3[nH]2)s1 [Compound 4]	2.8 ± 0.1	5.4 ± 0.1	–	–	–
Cc1ccc(Nc2nnc(Cc3cc4cc(Cl)ccc4[nH]3)s2)cc1C [Compound 5]	–	–	5.8 ± 0.2	9.3 ± 0.1	–
Cc1cccc(Nc2nnc(Cc3cc4cc(Cl)ccc4[nH]3)s2)c1C [Compound 6]	–	–	8.7 ± 0.2	10.9 ± 0.1	–
Fc1ccc(Nc2nnc(Cc3cc4cc(Cl)ccc4[nH]3)s2)cc1 [Compound 8]	–	–	–	0.2 ± 0.1	0.15 ± 0.05
Fc1ccccc1Nc1nnc(Cc2cc3cc(Cl)ccc3[nH]2)s1 [Compound 9]	–	–	0.35 ± 0.05	0.5 ± 0.05	–
Fc1cccc(Nc2nnc(Cc3cc4cc(Cl)ccc4[nH]3)s2)c1 [Compound 10]	–	–	1.1 ± 0.1	2.8 ± 0.1	–
O=[N+]([O-])c1cc(Br)cc(Nc2nnc(Cc3cc4cc(Cl)ccc4[nH]3)s2)c1 [Compound 11]	–	–	12.3 ± 0.2	18.4 ± 0.3	–
COc1c(Nc2nnc(Cc3cc4cc(Cl)ccc4[nH]3)s2)cccc1[N+](=O)[O-] [Compound 12]	–	–	14.7 ± 0.3	19.2 ± 0.3	–
COc1cc(Nc2nnc(Cc3cc4cc(Cl)ccc4[nH]3)s2)ccc1[N+](=O)[O-] [Compound 13]	–	–	19.1 ± 0.3	25.3 ± 0.4	–
FC(F)(F)c1ccc(Nc2nnc(Cc3cc4cc(Cl)ccc4[nH]3)s2)cc1Cl [Compound 14]	–	–	0.4 ± 0.05	2.6 ± 0.1	–
O=[N+]([O-])c1cc(Nc2nnc(Cc3cc4cc(Cl)ccc4[nH]3)s2)ccc1Br [Compound 15]	–	–	22.2 ± 0.4	32.1 ± 0.1	–
O=[N+]([O-])c1ccc(Br)c(Nc2nnc(Cc3cc4cc(Cl)ccc4[nH]3)s2)c1 [Compound 16]	–	–	–	34.3 ± 0.6	–
